Data on 23 compounds can be found in patent publication US9315475B2 (MERCK SHARP & DOHME CORP., priority 2011, dated 2016).

This assay concerns the target T1, wildtype HIV-1 protease (Human immunodeficiency virus type 1 group M subtype B, UniProt P04585).
T1 construct: the wildtype HIV-1 protease (which was expressed in Escherichia coli); made in house; host or cells: Escherichia coli
The assay can be described thus: Assay for inhibition of microbial expressed HIV protease (Pepcleav). The settings on record: wild type HIV-1 protease expressed in E. coli, peptide substrate, pH 5.5; mean of at least two independent experiments; read-out: Pepcleav. Format: biochemical. As to the method: Assay for Inhibition of Microbial Expressed HIV Protease (“Pepcleav”)
Studies of the inhibition of the wildtype HIV-1 protease (which was expressed in Escherichia coli) were carried out with a peptide substrate [Val-Ser-Gln-Asn-(βnaphthyl)Ala-Pro-Ile-Val (SEQ ID NO:1)]. The inhibitor is first preincubated with the HIV-1 protease (wild type) enzyme in assay buffer (50 mM sodium acetate, pH 5.5, 100 mM NaCl, and 0.1% BSA) for 30 minutes at room temperature. Substrate is added to 400 micromolar in a total volume of 20 microliters containing 20 picomolar HIV-1 protease (final) and the reaction is incubated for 1 hour at 30° C. The reaction is quenched with the addition of formic acid and indinavir to 0.012% and 150 nM final concentrations, respectively. The product formation is determined after separation of product and substrate on a Zorbax Eclipse XDB-C 18 column connected to an API 4000 mass spectrometer (Applied Biosystems) with multiple reaction monitoring (transitions were 644.5/428.9 and 615.4/422.2 (M1/M3) for product and indinavir respectively). The extent of inhibition of the reaction is determined from the peak area of the products.
Take `COC(=O)N[C@H](C(=O)Nc1ccccc1CC[C@@H]1CN[C@H](CNS(=O)(=O)c2ccccn2)CO1)C(c1ccccc1)c1ccccc1` [Example 48, methyl N-[(1S)-1-benzhydryl-2-oxo-2-[[2-[2-[(2R,5R)-5-[(2-pyridylsulfonylamino)methyl]morpholin-2-yl]ethyl]phenyl]amino]ethyl]carbamate]: the IC50 was 91 nM.
To `N[C@H](C(=O)Nc1cccc(F)c1CC[C@@H]1CN[C@H](COC(=O)NCC(F)(F)F)CO1)[C@H](c1ccc(F)cc1)c1ccc(OC(F)(F)F)cc1` [Example 231, (βS)-β-(4-fluorophenyl)-N-(3-fluoro-2-{2-[(2R,5S)-5-({[(2,2,2-trifluoroethyl)carbamoyl]oxy}methyl)morpholin-2-yl]ethyl}phenyl)-O-(trifluoromethyl)-L-tyrosinamide] belongs 150 nM; to `COC(=O)N[C@H](C(=O)Nc1ccccc1CC[C@@H]1CN[C@H](COC(=O)N2CCCC2)CO1)C(c1ccccc1)c1ccccc1` [Example 27, [(3S,6R)-6-[2-[2-[[(2S)-2-(methoxycarbonylamino)-3,3-diphenyl-propanoyl]amino]phenyl]ethyl]morpholin-3-yl]methyl pyrrolidine-1-carboxylate], 180 nM.
The value for `COC(=O)N[C@H](C(=O)Nc1ccccc1CC[C@@H]1CN[C@H](CNC(=O)c2c(C)cccc2C)CO1)C(c1ccccc1)c1ccccc1` [Example 57, methyl N-[(1S)-1-benzhydryl-2-[[2-[2-[(2R,5R)-5-[[(2,6-dimethylbenzoyl)amino]methyl]morpholin-2-yl]ethyl]phenyl]amino]-2-oxo-ethyl]carbamate] was 50 nM; that for `COC(=O)N[C@H](C(=O)Nc1ccccc1CC[C@@H]1CN[C@H](C(=O)NCc2ccccc2)CO1)C(c1ccccc1)c1ccccc1` [Example 2, N-(2-{2-[(2R,5S)-5-(benzylcarbamoyl)morpholin-2-yl]ethyl}phenyl)-Nα-(methoxycarbonyl)-β-phenyl-L-phenylalaninamide] was 1.4 nM.
To `COC(=O)N[C@H](C(=O)Nc1cncnc1CC[C@@H]1CN[C@H](COC(=O)NCC(F)(F)F)CO1)C(c1ccccc1)c1ccccc1` [Example 37, Nα-(methoxycarbonyl)-β-phenyl-N-(4-{2-[(2R,5S)-5-({[(2,2,2-trifluoroethyl)carbamoyl]oxy}methyl)morpholin-2-yl]ethyl}pyrimidin-5-yl)-L-phenylalaninamide] belongs 180 nM; to `COC(=O)N[C@H](C(=O)Nc1ccccc1CC[C@@H]1CN[C@H](COC(=O)N(C)C)CO1)C(c1ccccc1)c1ccccc1` [Example 26, methyl N-[(1S)-1-benzhydryl-2-[[2-[2-[(2R,5S)-5-(dimethylcarbamoyloxymethyl)morpholin-2-yl]ethyl]phenyl]amino]-2-oxo-ethyl]carbamate], 210 nM; to `COC(=O)N[C@H](C(=O)Nc1ccccc1CC[C@@H]1CN[C@H](CNC(=O)c2ccccc2Cl)CO1)C(c1ccccc1)c1ccccc1` [Example 55, methyl N-[(1S)-1-benzhydryl-2-[[2-[2-[(2R,5R)-5-[[(2-chloro-benzoyl)amino]methyl]morpholin-2-yl]ethyl]phenyl]amino]-2-oxo-ethyl]carbamate], 30 nM.
As for `COC(=O)N[C@H](C(=O)Nc1ccccc1CC[C@@H]1CN[C@H](C(=O)N2CCCC2)CO1)C(c1ccccc1)c1ccccc1` [Example 5, Nα-(methoxycarbonyl)-β-phenyl-N-(2-{2-[(2R,5S)-5-(pyrrolidin-1-ylcarbonyl)morpholin-2-yl]ethyl}phenyl)-L-phenylalaninamide], the IC50 came out at 80 nM.
In the case of `N[C@@H](Cc1cccc2ccccc12)C(=O)Nc1cncc(F)c1CC[C@@H]1CN[C@H](COC(=O)NCc2ccc(F)cc2)CO1` [Example 191, {(3S,6R)-6-[2-(3-{[(2S)-2-amino-3-naphthalen-1-ylpropanoyl]amino}-5-fluoropyridin-4-yl)ethyl]morpholin-3-yl}methyl (4-fluorobenzyl)carbamate (non-preferred name)], the IC50 stood at 130 nM.
As to `N[C@H](C(=O)Nc1cccc(C(F)(F)F)c1CC[C@@H]1CN[C@H](COC(=O)NCC(F)(F)F)CO1)C(c1ccccc1)c1ccccc1` [Example 234, β-phenyl-N-[2-{2-[(2R,5S)-5-({[(2,2,2-trifluoroethyl)carbamoyl]oxy}methyl)morpholin-2-yl]ethyl}-3-(trifluoromethyl)phenyl]-L-phenylalaninamide], the IC50 came out at 110 nM.
Take `COC(=O)N[C@H](C(=O)Nc1ccccc1CC[C@@H]1CN[C@H](CNC(=O)OC2CCOC2)CO1)C(c1ccccc1)c1ccccc1` (stereo partly drawn) [Example 84, Nα-(methoxycarbonyl)-β-phenyl-N-(2-{2-[(2R,5R)-5-({[(tetrahydrofuran-3-yloxy)carbonyl]amino}methyl)morpholin-2-yl]ethyl}phenyl)-L-phenylalaninamide]: the IC50 is 670 nM.
Consider `COC(=O)N[C@H](C(=O)Nc1ccccc1CC[C@@H]1CN[C@H](COC(=O)NCc2cncs2)CO1)C(c1ccccc1)c1ccccc1` [Example 19, methyl N-[(1S)-1-benzhydryl-2-oxo-2-[[2-[2-[(2R,5S)-5-(thiazol-5-ylmethylcarbamoyloxymethyl)morpholin-2-yl]ethyl]phenyl]amino]ethyl]carbamate], for which the IC50 worked out at 48 nM.
Take `COC(=O)N[C@H](C(=O)Nc1ccccc1CC[C@@H]1CN[C@H](CCc2ccccc2NC(=O)OCc2ccccc2)CO1)C(c1ccccc1)c1ccccc1` [Example 74, methyl N-[(1S)-1-benzhydryl-2-[[2-[2-[(2R,5R)-5-[2-(2-benzyloxycarbonylamino-phenyl)ethyl]morpholin-2-yl]ethyl]phenyl]amino]-2-oxo-ethyl]carbamate]: the IC50 came out at 10 nM.
In the case of `COC(=O)N[C@H](C(=O)Nc1ccccc1CC[C@@H]1CN[C@H](CO)CO1)C(c1ccccc1)c1ccccc1` [Example 61, N-(2-{2-[(2R,5R)-5-(hydroxymethyl)morpholin-2-yl]ethyl}phenyl)-Nα-(methoxycarbonyl)-β-phenyl-L-phenylalaninamide], the IC50 turned out to be 160 nM.
Take `N[C@@H](Cc1cccc2ccccc12)C(=O)Nc1cncc(F)c1CC[C@@H]1CN[C@H](COC(=O)NCC(F)(F)F)CO1` [Example 190, {(3S,6R)-6-[2-(3-{[(2S)-2-amino-3-naphthalen-1-ylpropanoyl]amino}-5-fluoropyridin-4-yl)ethyl]morpholin-3-yl}methyl (2,2,2-trifluoroethyl)carbamate (non-preferred name)]: the IC50 is 510 nM.
Turning to `N[C@H](C(=O)Nc1cncc(F)c1CC[C@@H]1CN[C@H](COC(=O)NC2(c3ccncc3)CCC2)CO1)C(c1ccc(F)cc1)c1ccc(F)cc1` [Example 194, 4-fluoro-β-(4-fluorophenyl)-N-(5-fluoro-4-{2-[(2R,5S)-5-({[(1-pyridin-4-ylcyclobutyl)carbamoyl]oxy}methyl)morpholin-2-yl]ethyl}pyridin-3-yl)-L-phenylalaninamide], the IC50 was determined as 100 nM.
As to `N[C@H](C(=O)Nc1cncc(F)c1CC[C@@H]1CN[C@H](COC(=O)N2CCOCC2)CO1)C(c1ccc(F)cc1)c1ccc(F)cc1` [Example 197, {(3S,6R)-6-[2-(3-fluoro-5-{[4-fluoro-β-(4-fluorophenyl)-L-phenylalanyl]amino}pyridin-4-yl)ethyl]morpholin-3-yl}methyl morpholine-4-carboxylate], the IC50 worked out at 68 nM.
With `COC(=O)N[C@H](C(=O)Nc1ccccc1CC[C@@H]1CN[C@H](C(=O)NC2CCOC2)CO1)C(c1ccccc1)c1ccccc1` (stereo partly drawn) [Example 4, Nα-(methoxycarbonyl)-β-phenyl-N-(2-{2-[(2R,5S)-5-(tetrahydrofuran-3-ylcarbamoyl)morpholin-2-yl]ethyl}phenyl)-L-phenylalaninamide], the IC50 worked out at 25 nM.
For the compound `COC(=O)N[C@H](C(=O)Nc1ccccc1CC[C@@H]1CN[C@H](CNC(=O)Cc2ccccc2)CO1)C(c1ccccc1)c1ccccc1` [Example 53, Nα-(methoxycarbonyl)-β-phenyl-N-(2-{2-[(2R,5R)-5-{[(phenylacetyl)amino]methyl}morpholin-2-yl]ethyl}phenyl)-L-phenylalaninamide], the IC50 turned out to be 12 nM.
The value for `N[C@H](C(=O)Nc1c(F)cccc1OC[C@@H]1CN[C@H](COC(=O)NCC(F)(F)F)CO1)C(c1ccc(F)cc1)c1ccc(F)cc1` [Example 200, 4-fluoro-β-(4-fluorophenyl)-N-(2-fluoro-6-{[(2S,5S)-5-({[(2,2,2-trifluoroethyl)carbamoyl]oxy}methyl)morpholin-2-yl]methoxy}phenyl)-L-phenylalaninamide] was 31 nM.
To `CCN(CC)C(=O)OC[C@@H]1CO[C@H](CCc2ccccc2NC(=O)[C@@H](NC(=O)OC)C(c2ccccc2)c2ccccc2)CN1` [Example 25] belongs 120 nM; to `COC(=O)N[C@H](C(=O)Nc1ccccc1CC[C@@H]1CN[C@H](COC(=O)NC(C2CC2)C(F)(F)F)CO1)C(c1ccccc1)c1ccccc1` (stereo partly drawn) [Example 31, N-(2-{2-[(2R,5S)-5-({[(1-cyclopropyl-2,2,2 trifluoroethyl)carbamoyl]oxy}methyl)morpholin-2-yl]ethyl}phenyl)-Nα-(methoxycarbonyl)-β-phenyl-L-phenylalaninamide], 29 nM.
